Where two headings read alike, the source gives them in different places.

Format in all cases: cell-based
Experiment [1] concerns the target T1, hS1P3 (Homo sapiens, UniProt Q99500). Description: Suppressive effect on S1P-induced increase in [Ca2+]i, CHO-K1 cells expressing S1P3 (Fura 2-AM), IC50. Conditions: S1P solution 50 nmol/L, read-out: hS1P3 suppression IC50.
The target in experiment [2] is T1, hS1P3. Description: S1P receptor subtype selectivity, S1P-induced [Ca2+]i increase in CHO-K1 cells stably expressing S1P3 (Calcium3). How it is done:
(§1) The selectivity to the S1P receptor subtype was examined in the following manner. […] Furthermore, a Calcium3 (Molecular Devices, Inc.) solution prepared in HBSS (+) buffer, which is a fluorescent Ca^2+ indicator, was added, and the cells were incubated for 60 minutes at 37° C. Then, 100 μL of a test compound solution prepared to a concentration of 2×10 μmol/L was added, and the cells were incubated for 20 minutes at 37° C. […] The indicator was prepared and used according to the instruction manual.
(§2) A solution of the test compound was prepared by dissolving each of the test compounds in DMSO to a concentration of 10 mmol/L, and then diluting the solution with an HBSS (+) buffer solution to the predetermined concentration. […] The measurement values were obtained by subtracting the maximum RFU value for the blind test from the maximum RFU values for control or each test compounds. A decrease in the measurement value for the test compound relative to the control was indicated as the suppression rate (%), from which the IC50 value was calculated.

In experiment [3] the target is T2, hS1P1 (Homo sapiens, UniProt P21453).
T2 construct: expressed in transfected cells
T2 sequence (P21453 whole entry): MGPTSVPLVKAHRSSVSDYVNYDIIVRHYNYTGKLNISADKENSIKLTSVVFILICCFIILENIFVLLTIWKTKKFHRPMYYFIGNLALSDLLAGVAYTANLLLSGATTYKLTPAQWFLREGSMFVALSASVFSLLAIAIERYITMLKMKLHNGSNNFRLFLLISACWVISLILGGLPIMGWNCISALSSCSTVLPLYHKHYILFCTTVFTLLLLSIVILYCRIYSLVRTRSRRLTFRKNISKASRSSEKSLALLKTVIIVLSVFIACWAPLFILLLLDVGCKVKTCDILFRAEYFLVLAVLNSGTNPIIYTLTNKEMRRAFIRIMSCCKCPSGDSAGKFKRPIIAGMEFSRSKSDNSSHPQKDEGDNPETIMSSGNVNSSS
Description: S1P receptor subtype selectivity, S1P-induced [Ca2+]i increase in CHO-K1 cells stably expressing S1P1 (Calcium3). The method, then: as §1, §2

Experiment [4] addresses T3, hS1P2 (Homo sapiens, UniProt O95136).
T3 construct: expressed in transfected cells
Description: S1P receptor subtype selectivity, S1P-induced [Ca2+]i increase in CHO-K1 cells stably expressing S1P2 (Calcium3). The method, then:
as §1, §2

The mark [5] stands for this setting: CHO-K1, read-out: Suppression rate at 10 μM (%) hS1P3.
Where [6] appears, read: CHO-K1, read-out: Suppression rate at 10 μM (%) hS1P1.
The mark [7] stands for this setting: CHO-K1, read-out: Suppression rate at 10 μM (%) hS1P2.
The mark [8] stands for this setting: 10 μM, CHO-K1 stably expressing S1P1, S1P solution 100 nmol/L, Calcium3, read-out: Suppression rate at 10 μM (%) hS1P1.
The mark [9] stands for this setting: 10 μM, CHO-K1 stably expressing S1P2, S1P solution 100 nmol/L, Calcium3, read-out: Suppression rate at 10 μM (%) hS1P2.
Setting [10] is: 10 μM, CHO-K1 stably expressing S1P3, S1P solution 50 nmol/L, Calcium3, read-out: Suppression rate at 10 μM (%) hS1P3.

T3 sequence (O95136 whole entry): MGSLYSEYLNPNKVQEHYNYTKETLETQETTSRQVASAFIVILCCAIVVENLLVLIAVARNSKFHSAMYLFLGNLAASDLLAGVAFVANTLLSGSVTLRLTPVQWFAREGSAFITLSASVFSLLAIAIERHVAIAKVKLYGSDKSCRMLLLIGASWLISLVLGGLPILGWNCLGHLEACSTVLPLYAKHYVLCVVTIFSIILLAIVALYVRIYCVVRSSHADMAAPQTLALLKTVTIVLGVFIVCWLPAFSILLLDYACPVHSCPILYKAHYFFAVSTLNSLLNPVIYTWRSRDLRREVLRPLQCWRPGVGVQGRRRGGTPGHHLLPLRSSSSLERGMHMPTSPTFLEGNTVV
T1 sequence (Q99500 whole entry): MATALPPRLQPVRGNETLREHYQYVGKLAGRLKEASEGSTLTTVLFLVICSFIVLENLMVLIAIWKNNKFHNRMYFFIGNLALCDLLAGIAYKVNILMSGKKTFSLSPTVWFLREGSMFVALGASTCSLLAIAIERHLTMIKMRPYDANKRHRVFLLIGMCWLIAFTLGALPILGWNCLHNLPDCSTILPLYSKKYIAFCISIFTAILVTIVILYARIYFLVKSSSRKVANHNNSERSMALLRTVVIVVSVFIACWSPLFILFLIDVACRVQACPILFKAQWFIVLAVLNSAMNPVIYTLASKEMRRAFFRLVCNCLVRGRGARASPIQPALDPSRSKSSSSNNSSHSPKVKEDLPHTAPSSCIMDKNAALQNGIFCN

Turning to `C#Cc1ccc(NC(=NNc2ccc(Cl)cc2)C(=O)C(C)(C)C)cc1` [Compound 136, 1-(4-chlorophenylhydrazono)-1-(4-ethynylphenylamino)-3,3-dimethyl-2-butanone], the IC50 in experiment [1] was found to be 990 nM. Further, the inhibition at 10 µM was found to be 94.3% in experiment [2] (setting [5]), 40.3% in experiment [3] (setting [6]) and 33.7% in experiment [4] (setting [7]).

For `C#Cc1ccc(NC(=NNc2ccc(Cl)cc2)C(=O)C(C)(C)CCl)cc1` [Compound 122, 4-chloro-1-(4-chlorophenylhydrazono)-1-(4-ethynylphenylamino)-3,3-dimethyl-2-butanone], the IC50 in experiment [1] turned out to be 3860 nM. Further, the inhibition at 10 µM in experiment [2] (setting [5]) was found to be 89.9%; in experiment [3] (setting [6]) it was 4.9%; in experiment [4] (setting [7]), 7.1%.

For `C#Cc1ccc(NC(=NNc2ccc(Br)cc2)C(=O)C(C)(C)C)cc1` [Compound 78, 1-(4-bromophenylhydrazono)-1-(4-ethynylphenylamino)-3,3-dimethyl-2-butanone], the 50% inhibitory concentration (IC50) in experiment [1] amounted to 970 nM. In addition, the figures for the inhibition at 10 µM in experiment [2] (setting [5]), in experiment [3] (setting [6]) and in experiment [4] (setting [7]) were 105%, 25.1% and 20.8%, respectively.

As for `Cc1ccc(NN=C(Nc2ccc(Cl)c(Cl)c2)C(=O)C(C)(C)C)cc1` [Compound 65, 1-(3,4-dichlorophenylamino)-1-(4-methylphenylhydrazono)-3,3-dimethyl-2-butanone], the IC50 in experiment [1] is 670 nM. For the same molecule, the inhibition at 10 µM was 5.1% in experiment [3] (setting [8]) and 10% in experiment [4] (setting [9]).

Turning to `CC(C)(C)C(=O)C(=NNc1ccc(Br)cc1)Nc1ccc(F)cc1` [Compound 74, 1-(4-bromophenylhydrazono)-1-(4-fluorophenylamino)-3,3-dimethyl-2-butanone], the IC50 in experiment [1] came to 2320 nM. In addition, the inhibition at 10 µM is 105% in experiment [2] (setting [10]), 20.4% in experiment [3] (setting [8]) and 23.2% in experiment [4] (setting [9]).

As for `CC(C)(C)C(=O)C(=NNc1ccc(Br)cc1)Nc1cccc(F)c1` [Compound 73, 1-(4-bromophenylhydrazono)-1-(3-fluorophenylamino)-3,3-dimethyl-2-butanone], the concentration for half-maximal inhibition (IC50) in experiment [1] was 1900 nM. Also, the values for the inhibition at 10 µM in experiment [3] (setting [8]) and in experiment [4] (setting [9]) were 5.1% and 22.3%, respectively.

In the case of `CC(C)(C)NC(=O)C(=NNc1ccc(Cl)cc1)Nc1ccc(Cl)cc1` [Compound 29, N-tert-butyl-[1-(4-chlorophenylamino)-1-(4-chlorophenylhydrazono)]acetamide], in experiment [1], the IC50 was 5110 nM. Besides, the results for the inhibition at 10 µM in experiment [3] (setting [6]) and in experiment [4] (setting [7]) were 29.7% and 17.4%, respectively.

Turning to `Cc1ccc(NN=C(Nc2ccc(Cl)cc2)C(=O)C(C)(C)C)cc1` [Compound 62, 1-(4-chlorophenylamino)-1-(4-methylphenylhydrazono)-3,3-dimethyl-2-butanone], the IC50 in experiment [1] was 1720 nM. Moreover, the inhibition at 10 µM is -9.7% in experiment [3] (setting [6]) and 7.4% in experiment [4] (setting [7]).

`CC(C)(C)C(=O)C(=NNc1ccc(Br)cc1)Nc1ccc(Br)cc1` [Compound 76, 1-(4-bromophenylamino)-1-(4-bromophenylhydrazono)-3,3-dimethyl-2-butanone]: the IC50 in experiment [1] is 1660 nM. Besides, the inhibition at 10 µM in experiment [2] (setting [10]) was 103%; in experiment [3] (setting [8]), 5.1%; in experiment [4] (setting [9]) it was 26.1%.

Regarding `CC(C)(C)CC(=O)C(=NNc1ccc(Cl)cc1)Nc1cccc(Cl)c1` [Compound 140, 1-(3-chlorophenylamino)-1-(4-chlorophenylhydrazono)-4,4-dimethyl-2-pentanone], the IC50 in experiment [1] is 1990 nM. Also, the inhibition at 10 µM was found to be 18.3% in experiment [3] (setting [6]) and 26.2% in experiment [4] (setting [7]).

Take `CC(C)(C)C(=O)C(=NNc1ccccc1)Nc1ccc(Cl)c(Cl)c1` [Compound 52, 1-(3,4-dichlorophenylamino)-1-(phenylhydrazono)-3,3-dimethyl-2-butanone]: the IC50 in experiment [1] stood at 1020 nM. Further, the inhibition at 10 µM is 29.5% in experiment [3] (setting [8]) and 26.2% in experiment [4] (setting [9]).

Regarding `C#Cc1ccc(NN=C(Nc2cccc(Cl)c2)C(=O)C(C)(C)C)cc1` [Compound 108, 1-(3-chlorophenylamino)-1-(4-ethynylphenylhydrazono)-3,3-dimethyl-2-butanone], the IC50 in experiment [1] stood at 840 nM. In addition, the inhibition at 10 µM in experiment [3] (setting [6]) was determined as 11.1%; in experiment [4] (setting [7]) it was 15.8%.

As to `CCC(CC)C(=O)C(=NNc1ccc(Cl)cc1)Nc1cccc(Cl)c1` [Compound 137, 1-(3-chlorophenylamino)-1-(4-chlorophenylhydrazono)-3-ethyl-2-pentanone], the IC50 in experiment [1] stood at 1590 nM. Further, the inhibition at 10 µM was 35.3% in experiment [3] (setting [6]) and 30.1% in experiment [4] (setting [7]).

For `CC(C)(C)C(=O)C(=NNc1ccc(F)cc1)Nc1ccc(F)cc1` [Compound 54, 1-(4-fluorophenylamino)-1-(4-fluorophenylhydrazono)-3,3-dimethyl-2-butanone], the IC50 in experiment [1] was 4380 nM. For the same molecule, the inhibition at 10 µM is 101% in experiment [2] (setting [10]), 22% in experiment [3] (setting [8]) and 16% in experiment [4] (setting [9]).

On to `O=C(C(=NNc1ccc(Cl)cc1)Nc1cccc(F)c1)N1CCCCC1` [Compound 21, [1-(4-Chlorophenylhydrazono)-1-(3-fluorophenylamino)acetyl]piperidine], for which the IC50 in experiment [1] amounted to 26800 nM. The inhibition at 10 µM in experiment [2] (setting [10]) stood at 91.1%; in experiment [3] (setting [8]), 17.5%; in experiment [4] (setting [9]), 13.7%.

Consider `CCC(CC)C(=O)C(=NNc1ccc(Cl)cc1)Nc1ccc(F)cc1` [Compound 112, 1-(4-chlorophenylhydrazono)-1-(4-fluorophenylamino)-3-ethyl-2-pentanone], for which the IC50 in experiment [1] came to 1660 nM. In addition, the inhibition at 10 µM in experiment [2] (setting [10]) turned out to be 86.6%; in experiment [3] (setting [8]), 22.1%; in experiment [4] (setting [9]), 12.8%.

In the case of `CC(C)(C)CC(=O)C(=NNc1ccc(Cl)cc1)Nc1ccc(Cl)cc1` [Compound 139, 1-(4-chlorophenylamino)-1-(4-chlorophenylhydrazono)-4,4-dimethyl-2-pentanone], the IC50 in experiment [1] is 1700 nM. The inhibition at 10 µM in experiment [3] (setting [6]) came out at 14.9%; in experiment [4] (setting [7]), 40.6%.

On to `CC(C)(C)NC(=O)C(=NNc1ccc(Cl)cc1)Nc1cccc(F)c1` [Compound 28, N-tert-butyl-[1-(4-chlorophenylhydrazono)-1-(3-fluorophenylamino)]acetamide], for which the IC50 in experiment [1] came out at 7970 nM. Also, the inhibition at 10 µM in experiment [3] (setting [6]) was found to be 14.6%; in experiment [4] (setting [7]), 14.2%.

Turning to `C#Cc1ccc(NN=C(Nc2cccc(F)c2)C(=O)C(C)(C)C)cc1` [Compound 131, 1-(3-fluorophenylamino)-1-(4-ethynylphenylhydrazono)-3,3-dimethyl-2-butanone], the half-maximal inhibitory concentration (IC50) in experiment [1] worked out at 750 nM. Besides, the inhibition at 10 µM in experiment [3] (setting [8]) was 15.7%; in experiment [4] (setting [9]) it was 24.7%.

As for `C#Cc1ccc(NN=C(Nc2ccc(C#C)cc2)C(=O)C(C)(C)C)cc1` [Compound 138, 1-(4-ethynylphenylamino)-1-(4-ethynylphenylhydrazono)-3,3-dimethyl-2-butanone], the concentration for half-maximal inhibition (IC50) in experiment [1] came out at 1620 nM. The inhibition at 10 µM in experiment [2] (setting [5]) was 79.9%; in experiment [3] (setting [6]), 14.1%; in experiment [4] (setting [7]) it was 8%.

In the case of `CCCCC(=O)C(=NNc1ccc(Cl)cc1)Nc1ccc(Cl)cc1` [Compound 115, 1-(4-chlorophenylamino)-1-(4-chlorophenylhydrazono)-2-hexanone], the 50% inhibitory concentration (IC50) in experiment [1] was 2470 nM. The inhibition at 10 µM came to 24.3% in experiment [3] (setting [6]) and 27% in experiment [4] (setting [7]).

With `CC(C)(C)C(=O)C(=NNc1cccc(Cl)c1)Nc1cccc(F)c1` [Compound 41, 1-(3-chlorophenylhydrazono)-1-(3-fluorophenylamino)-3,3-dimethyl-2-butanone], the half-inhibitory concentration (IC50) in experiment [1] stood at 3540 nM. The inhibition at 10 µM in experiment [3] (setting [8]) stood at 18.4%; in experiment [4] (setting [9]) it was 27.1%.

For `CCOC(=O)C(=NNc1ccc(Cl)cc1)Nc1ccccc1` [Compound 19, ethyl 1-(4-chlorophenylhydrazono)-1-(phenylamino)acetate], the half-inhibitory concentration (IC50) in experiment [1] stood at 3640 nM. The inhibition at 10 µM in experiment [3] (setting [8]) is -25.4%; in experiment [4] (setting [9]), -8.6%.

With `Cc1ccc(NN=C(Nc2cccc(F)c2)C(=O)C(C)(C)C)cc1` [Compound 61, 1-(3-fluorophenylamino)-1-(4-methylphenylhydrazono)-3,3-dimethyl-2-butanone], in experiment [1], the IC50 turned out to be 3220 nM. For the same molecule, the inhibition at 10 µM in experiment [3] (setting [8]) was -2.9%; in experiment [4] (setting [9]) it was 8.1%.

Turning to `CC(C)(C)C(=O)C(=NNc1cccc(Cl)c1)Nc1ccc(Cl)cc1` [Compound 42, 1-(4-chlorophenylamino)-1-(3-chlorophenylhydrazono)-3,3-dimethyl-2-butanone], the concentration for half-maximal inhibition (IC50) in experiment [1] was 2890 nM. Moreover, the inhibition at 10 µM in experiment [3] (setting [6]) is 7.9%; in experiment [4] (setting [7]), 32.9%.

Broadly, the IC50 is the concentration at which inhibition is half-maximal.

These data come from patent US8546452B2, “S1P3 receptor antagonist” (TOA Eiyo Ltd., priority 2005, dated 2013).
